Test results published in patent publication US10336746B1, “RAD51 inhibitors” (Cyteir Therapeutics, Inc., priority 2017, dated 2019).

Columns and labels:
Type in all cases: cell-based
[1] = system: WI-38 (Normal Human Lung Fibroblast); assay: Cell line screen, WI-38; details: AICDA Expression Negative
Description: (§1) The activity of the claimed compounds was measured in a variety of cell lines with different expression levels of activation induced cytidine deaminase (AICDA). The potency assay was repeated in all of the listed cell lines and the EC50 values recorded.

[2] = system: SNU-1 (Gastric); assay: Cell line screen, SNU-1; details: Homo sapiens, SNU1, AICDA Expression Negative
Description: as §1

[3] = system: TOV-1120D (Ovary); assay: Cell line screen, TOV-1120D; details: AICDA Expression Negative
Description: as §1

[4] = system: U-698-M (Lymphoma); assay: Cell line screen, U-698-M; details: AICDA Expression High
Description: as §1

[5] = system: CCRF-SB (Leukemia); assay: Cell line screen, CCRF-SB; details: Homo sapiens, AICDA Expression High
Description: as §1

[6] = system: WI-38 cells (AID negative); assay: Primary screening cell killing assay repeated in WI-38 cells (AID negative); details: Homo sapiens, 168 h, cell death on Day 7, Cell-Titer Glo
Method in brief: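 Cell-killing counter-screen in AID-negative WI-38 cells, probing RAD51 inhibition via AID/RAD51 synthetic lethality. Viability luminescence (RLU) was media-subtracted, normalized to DMSO wells, and converted to percent kill (1 − normalized RLU) × 100; EC50 came from non-linear regression on a semi-log scale.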

Compound | EC50 [1] | EC50 [2] | EC50 [3] | EC50 [4] | EC50 [5] | EC50 [6]
CC(C)OC(=O)N[C@H]1CC[C@H](c2ncc(-c3ccc(NC(=O)NCc4ccccc4)cc3S(=O)(=O)NC(C)(C)C)s2)CC1 [Ex. 66A, trans-isopropyl N-[4-[5-[4-(benzylcarbamoylamino)-2-(tert-butylsulfamoyl)phenyl]thiazol-2-yl]cyclohexyl]carbamate] | > 10000 nM | 609 nM | 2380 nM | 88 nM | 183 nM | > 1000 nM
CC(C)OC(=O)Nc1ccc(-c2cnc([C@H]3CC[C@H](NC(=O)OC(C)C)CC3)s2)c(S(=O)(=O)NC(C)(C)C)c1 [Ex. 67A, trans-isopropyl N-[3-(tert-butylsulfamoyl)-4-[2-[4-(isopropoxycarbonylamino)cyclohexyl]thiazol-5-yl]phenyl]carbamate] | > 10000 nM | 2930 nM | 4920 nM | 791 nM | 932 nM | > 1000 nM
